Patent US9302991B2, “Arylamide derivatives as TTX-S blockers” (RaQualia Pharma Inc., priority 2010, dated 2016)

Experiments:
human Nav1.3 channels = target: T1, human Nav1.3 channels (Homo sapiens, UniProt Q9NY46); experiment: FRET assay, human Nav1.3 (EFS on FDSS); format: cell-based; conditions: HEK293 cells expressing human Nav1.3, read-out: IC50 against Nav1.3
T1 construct: expressed in transfected cells; host or cells: HEK293
Summary of the method: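 HEK293 cells expressing the channel, loaded with 10 microM CC2-DMPE then 15 microM DiSBAC2(3) plus 0.555 mM VABSC-1 in pH 7.4 HEPES buffer at room temperature. Membrane potential changes evoked by electrical field stimulation after compound addition; IC50 from 440 nm-normalized FRET ratios.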

human Nav1.7 channels = target: T2, human Nav1.7 channels (Homo sapiens, UniProt Q15858); experiment: FRET assay, human Nav1.7 (EFS on FDSS); format: cell-based; conditions: CHO cells expressing human Nav1.7, read-out: IC50 against Nav1.7
T2 construct: expressed in transfected cells; host or cells: CHO
Summary of the method: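 CHO cells stably expressing the channel, loaded with CC2-DMPE (10 µM) then DiSBAC2(3) (15 µM) plus VABSC-1, in HEPES-buffered saline pH 7.4 at room temperature. Electrical field stimulation on FDSS; FRET ratio at 440 nm fitted for IC50.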

T2 sequence (Q15858 whole entry): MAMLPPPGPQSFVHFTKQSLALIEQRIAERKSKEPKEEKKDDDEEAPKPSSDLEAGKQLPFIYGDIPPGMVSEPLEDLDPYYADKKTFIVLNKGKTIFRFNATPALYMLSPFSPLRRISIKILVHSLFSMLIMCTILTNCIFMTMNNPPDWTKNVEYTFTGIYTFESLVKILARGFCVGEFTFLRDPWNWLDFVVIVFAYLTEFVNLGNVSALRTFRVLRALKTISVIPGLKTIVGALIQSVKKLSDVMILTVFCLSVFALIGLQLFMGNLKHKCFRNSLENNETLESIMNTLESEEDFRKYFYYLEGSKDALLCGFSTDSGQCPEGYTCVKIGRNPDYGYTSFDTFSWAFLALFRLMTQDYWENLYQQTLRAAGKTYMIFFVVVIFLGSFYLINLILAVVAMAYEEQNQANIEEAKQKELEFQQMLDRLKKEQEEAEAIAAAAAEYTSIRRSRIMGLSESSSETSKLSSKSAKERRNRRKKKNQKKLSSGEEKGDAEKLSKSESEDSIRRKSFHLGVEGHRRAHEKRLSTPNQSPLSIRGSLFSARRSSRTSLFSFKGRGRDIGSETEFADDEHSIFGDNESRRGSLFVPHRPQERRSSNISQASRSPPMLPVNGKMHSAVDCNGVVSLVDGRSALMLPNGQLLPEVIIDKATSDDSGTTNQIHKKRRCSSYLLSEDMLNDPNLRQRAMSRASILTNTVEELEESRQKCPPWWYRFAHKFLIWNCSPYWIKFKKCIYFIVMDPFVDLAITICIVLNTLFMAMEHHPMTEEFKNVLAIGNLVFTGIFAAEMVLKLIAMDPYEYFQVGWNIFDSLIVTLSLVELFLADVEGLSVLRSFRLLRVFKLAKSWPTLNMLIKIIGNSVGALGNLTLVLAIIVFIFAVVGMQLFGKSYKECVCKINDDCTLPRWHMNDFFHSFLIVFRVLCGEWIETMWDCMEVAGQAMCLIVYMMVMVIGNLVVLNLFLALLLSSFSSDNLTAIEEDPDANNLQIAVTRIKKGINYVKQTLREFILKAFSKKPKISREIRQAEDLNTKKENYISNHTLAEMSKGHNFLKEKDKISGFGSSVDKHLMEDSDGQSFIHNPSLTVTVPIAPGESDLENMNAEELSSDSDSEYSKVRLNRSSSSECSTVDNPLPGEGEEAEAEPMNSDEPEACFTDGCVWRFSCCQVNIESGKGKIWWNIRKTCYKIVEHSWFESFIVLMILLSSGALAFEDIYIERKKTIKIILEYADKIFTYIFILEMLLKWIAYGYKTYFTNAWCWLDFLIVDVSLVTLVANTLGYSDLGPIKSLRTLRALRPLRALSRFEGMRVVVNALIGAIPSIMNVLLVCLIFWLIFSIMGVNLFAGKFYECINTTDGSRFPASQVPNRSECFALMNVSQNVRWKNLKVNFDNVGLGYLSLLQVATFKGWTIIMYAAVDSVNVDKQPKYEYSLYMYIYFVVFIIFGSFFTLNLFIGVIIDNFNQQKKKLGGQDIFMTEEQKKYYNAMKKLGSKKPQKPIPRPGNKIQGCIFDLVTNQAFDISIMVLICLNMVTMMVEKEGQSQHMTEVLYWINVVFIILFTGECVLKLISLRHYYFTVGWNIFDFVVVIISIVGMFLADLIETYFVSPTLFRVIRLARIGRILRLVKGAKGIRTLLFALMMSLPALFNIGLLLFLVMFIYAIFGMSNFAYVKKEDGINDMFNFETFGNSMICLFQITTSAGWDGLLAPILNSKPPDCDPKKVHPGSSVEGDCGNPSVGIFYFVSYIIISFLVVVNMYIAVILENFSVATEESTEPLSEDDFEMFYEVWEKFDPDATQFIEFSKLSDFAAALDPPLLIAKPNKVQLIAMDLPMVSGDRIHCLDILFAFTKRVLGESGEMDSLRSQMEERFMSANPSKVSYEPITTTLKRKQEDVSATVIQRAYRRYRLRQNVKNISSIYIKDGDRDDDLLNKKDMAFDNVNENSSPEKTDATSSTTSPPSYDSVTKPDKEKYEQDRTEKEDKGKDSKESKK
T1 sequence (Q9NY46 whole entry): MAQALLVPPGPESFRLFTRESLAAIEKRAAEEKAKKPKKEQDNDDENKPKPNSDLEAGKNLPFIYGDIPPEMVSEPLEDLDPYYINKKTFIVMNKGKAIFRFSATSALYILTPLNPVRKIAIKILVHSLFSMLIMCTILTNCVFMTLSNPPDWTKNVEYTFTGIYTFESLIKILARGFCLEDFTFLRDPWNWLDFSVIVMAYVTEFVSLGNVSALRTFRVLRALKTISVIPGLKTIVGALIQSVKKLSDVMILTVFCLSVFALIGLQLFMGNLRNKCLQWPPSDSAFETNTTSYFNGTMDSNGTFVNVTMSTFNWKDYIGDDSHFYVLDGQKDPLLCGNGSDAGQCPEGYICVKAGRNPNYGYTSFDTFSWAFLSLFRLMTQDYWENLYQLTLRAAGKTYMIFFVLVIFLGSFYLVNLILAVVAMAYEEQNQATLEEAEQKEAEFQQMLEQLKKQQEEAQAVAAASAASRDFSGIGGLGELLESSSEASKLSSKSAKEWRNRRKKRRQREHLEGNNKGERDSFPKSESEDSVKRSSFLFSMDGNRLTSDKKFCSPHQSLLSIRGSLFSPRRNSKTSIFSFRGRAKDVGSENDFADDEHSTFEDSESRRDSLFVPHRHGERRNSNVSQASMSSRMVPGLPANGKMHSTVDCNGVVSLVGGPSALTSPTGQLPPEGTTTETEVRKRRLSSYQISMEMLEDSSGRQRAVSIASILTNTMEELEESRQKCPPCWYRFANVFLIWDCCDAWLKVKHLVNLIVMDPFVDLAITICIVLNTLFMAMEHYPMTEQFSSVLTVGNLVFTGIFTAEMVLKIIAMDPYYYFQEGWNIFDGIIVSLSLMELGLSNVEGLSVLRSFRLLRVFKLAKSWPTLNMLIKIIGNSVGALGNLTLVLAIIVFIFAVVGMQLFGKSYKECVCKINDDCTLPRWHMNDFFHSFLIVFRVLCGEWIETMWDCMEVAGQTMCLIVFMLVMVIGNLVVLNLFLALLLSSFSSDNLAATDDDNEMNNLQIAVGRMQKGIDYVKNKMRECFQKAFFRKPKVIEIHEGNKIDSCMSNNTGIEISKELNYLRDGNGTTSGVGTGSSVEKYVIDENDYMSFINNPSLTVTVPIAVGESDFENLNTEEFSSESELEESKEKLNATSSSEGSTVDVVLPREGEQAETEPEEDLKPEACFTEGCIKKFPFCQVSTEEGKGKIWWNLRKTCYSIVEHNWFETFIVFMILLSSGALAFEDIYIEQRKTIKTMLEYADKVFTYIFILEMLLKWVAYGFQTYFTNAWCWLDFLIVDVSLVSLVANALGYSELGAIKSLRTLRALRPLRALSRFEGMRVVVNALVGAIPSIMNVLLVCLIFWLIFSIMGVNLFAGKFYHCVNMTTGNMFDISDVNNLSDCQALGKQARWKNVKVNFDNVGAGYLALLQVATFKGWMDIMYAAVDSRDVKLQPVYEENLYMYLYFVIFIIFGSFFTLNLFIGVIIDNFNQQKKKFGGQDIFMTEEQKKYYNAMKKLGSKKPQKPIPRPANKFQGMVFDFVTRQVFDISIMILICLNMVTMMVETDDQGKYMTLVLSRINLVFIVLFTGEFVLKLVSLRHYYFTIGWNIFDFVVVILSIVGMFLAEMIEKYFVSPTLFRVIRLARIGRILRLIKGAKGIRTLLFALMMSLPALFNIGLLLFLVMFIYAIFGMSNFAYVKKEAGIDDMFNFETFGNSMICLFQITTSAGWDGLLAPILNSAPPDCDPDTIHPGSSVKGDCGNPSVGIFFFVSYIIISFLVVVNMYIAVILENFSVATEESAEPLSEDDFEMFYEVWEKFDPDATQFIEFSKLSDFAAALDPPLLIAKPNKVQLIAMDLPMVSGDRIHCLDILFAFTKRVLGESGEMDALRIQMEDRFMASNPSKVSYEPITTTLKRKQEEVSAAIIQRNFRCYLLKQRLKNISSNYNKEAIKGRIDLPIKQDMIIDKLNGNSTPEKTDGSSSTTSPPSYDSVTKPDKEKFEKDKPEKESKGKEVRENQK

IC50 (human Nav1.3 channels) [nM] | IC50 (human Nav1.7 channels) [nM] | Structure (SMILES)
< 1000 | < 1000 | Cc1c(CNC(=O)c2ccnc(NC(=O)C(C)C)c2)cccc1C(F)(F)F [Example 816, 2-isobutyramido-N-(2-methyl-3-(trifluoromethyl)benzyl)isonicotinamide]
< 1000 | < 1000 | Cc1cc(C(=O)NCc2cnc(OCC(F)(F)F)c(C)c2)cc(NC(=O)C2CC2)n1 [Example 824, 2-(cyclopropanecarboxamido)-6-methyl-N-((5-methyl-6-(2,2,2-trifluoroethoxy)pyridin-3-yl)methyl)isonicotinamide]
< 1000 | < 1000 | CCc1cc(CNC(=O)c2cc(C)nc(NC(=O)C3CC3)c2)cnc1OCC(F)(F)F [Example 825, 2-(cyclopropanecarboxamido)-N-((5-ethyl-6-(2,2,2-trifluoroethoxy)pyridin-3-yl)methyl)-6-methylisonicotinamide]
< 1000 | < 1000 | Cc1cc(C(=O)NCc2ccc(OCC(F)(F)F)c(C)c2)cc(NC(=O)C2CC2)n1 [Example 831, 2-(cyclopropanecarboxamido)-6-methyl-N-(3-methyl-4-(2,2,2-trifluoroethoxy)benzyl)isonicotinamide]
< 1000 | < 1000 | Cc1cc(C(=O)NCc2cccc(OC(F)(F)F)c2)cc(NC(=O)C2CC2)n1 [Example 836, 2-(cyclopropanecarboxamido)-6-methyl-N-(3-(trifluoromethoxy)benzyl)isonicotinamide]
< 1000 | < 1000 | COc1c(CNC(=O)c2cc(C)nc(NC(=O)C(C)C)c2)cccc1C(F)(F)F [Example 880, 2-isobutyramido-N-(2-methoxy-3-(trifluoromethyl)benzyl)-6-methylisonicotinamide]
< 1000 | < 1000 | CCC(=O)Nc1cc(C(=O)NCc2cnc(OCC(F)(F)F)c(Br)c2)ccn1 [Example 895, N-((5-bromo-6-(2,2,2-trifluoroethoxy)pyridin-3-yl)methyl)-2-propionamidoisonicotinamide]
< 1000 | < 1000 | O=C(NCc1cnc(OCC(F)(F)F)c(Br)c1)c1ccnc(NC(=O)C2CC2)c1 [Example 896, N-((5-bromo-6-(2,2,2-trifluoroethoxy)pyridin-3-yl)methyl)-2-(cyclopropanecarboxamido)isonicotinamide]
< 1000 | < 1000 | O=C(NCc1cnc(OCC(F)(F)F)c(Br)c1)c1ccnc(NC(=O)C2CC2)n1 [Example 898, N-((5-bromo-6-(2,2,2-trifluoroethoxy)pyridin-3-yl)methyl)-2-(cyclopropanecarboxamido)pyrimidine-4-carboxamide]
< 1000 | < 1000 | CC(=O)Nc1cc(C(=O)NCc2cnc(OCC(F)(F)F)c(Br)c2)cc(C)n1 [Example 899, 2-acetamido-N-((5-bromo-6-(2,2,2-trifluoroethoxy)pyridin-3-yl)methyl)-6-methylisonicotinamide]
< 1000 | < 1000 | Cc1cc(C(=O)NCc2cnc(OCC(F)(F)F)c(Br)c2)nc(NC(=O)C2CC2)n1 [Example 902, N-((5-bromo-6-(2,2,2-trifluoroethoxy)pyridin-3-yl)methyl)-2-(cyclopropanecarboxamido)-6-methylpyrimidine-4-carboxamide]
< 1000 | < 1000 | CCc1cc(CNC(=O)c2cc(C)nc(NC(=O)C(C)C)c2)cnc1OCC(F)F [Example 911, N-((6-(2,2-difluoroethoxy)-5-ethylpyridin-3-yl)methyl)-2-isobutyramido-6-methylisonicotinamide]
< 1000 | < 1000 | CCC(=O)Nc1cc(C(=O)NCc2cnc(OCC(F)F)c(CC)c2)ccn1 [Example 930, N-((6-(2,2-difluoroethoxy)-5-ethylpyridin-3-yl)methyl)-2-propionamidoisonicotinamide]
< 1000 | < 1000 | CC(=O)Nc1cc(C(=O)NCc2cnc(OCC(F)(F)C(F)F)c(C)c2)ccn1 [Example 939, 2-acetamido-N-((5-methyl-6-(2,2,3,3-tetrafluoropropoxy)pyridin-3-yl)methyl)isonicotinamide]
< 1000 | < 1000 | CCC(=O)Nc1cc(C(=O)NCc2cnc(OCC(F)(F)C(F)F)c(C)c2)ccn1 [Example 940, N-((5-methyl-6-(2,2,3,3-tetrafluoropropoxy)pyridin-3-yl)methyl)-2-propionamidoisonicotinamide]
< 1000 | < 1000 | Cc1cc(CNC(=O)c2ccnc(NC(=O)C(C)C)c2)cnc1OCC(F)(F)C(F)F [Example 941, 2-isobutyramido-N-((5-methyl-6-(2,2,3,3-tetrafluoropropoxy)pyridin-3-yl)methyl)isonicotinamide]
< 1000 | < 1000 | Cc1cc(CNC(=O)c2ccnc(NC(=O)C3CC3)c2)cnc1OCC(F)(F)C(F)F [Example 942, 2-(cyclopropanecarboxamido)-N-((5-methyl-6-(2,2,3,3-tetrafluoropropoxy)pyridin-3-yl)methyl)isonicotinamide]
< 1000 | < 1000 | Cc1cc(CNC(=O)c2ccnc(NC(=O)C3CC3)n2)cnc1OCC(F)(F)C(F)F [Example 943, 2-(cyclopropanecarboxamido)-N-((5-methyl-6-(2,2,3,3-tetrafluoropropoxy)pyridin-3-yl)methyl)pyrimidine-4-carboxamide]
< 1000 | < 1000 | CC(=O)Nc1cc(C(=O)NCc2cnc(OCC(F)(F)C(F)F)c(C)c2)cc(C)n1 [Example 944, 2-acetamido-6-methyl-N-((5-methyl-6-(2,2,3,3-tetrafluoropropoxy)pyridin-3-yl)methyl)isonicotinamide]
< 1000 | < 1000 | Cc1cc(C(=O)NCc2cnc(OCC(F)(F)C(F)F)c(C)c2)cc(NC(=O)C(C)C)n1 [Example 945, 2-isobutyramido-6-methyl-N-((5-methyl-6-(2,2,3,3-tetrafluoropropoxy)pyridin-3-yl)methyl)isonicotinamide]
< 1000 | < 1000 | Cc1cc(C(=O)NCc2cnc(OCC(F)(F)C(F)F)c(C)c2)cc(NC(=O)C2CC2)n1 [Example 946, 2-(cyclopropanecarboxamido)-6-methyl-N-((5-methyl-6-(2,2,3,3-tetrafluoropropoxy)pyridin-3-yl)methyl)isonicotinamide]
< 1000 | < 1000 | Cc1cc(C(=O)NCc2cnc(OCC(F)(F)C(F)F)c(C)c2)nc(NC(=O)C2CC2)n1 [Example 947, 2-(cyclopropanecarboxamido)-6-methyl-N-((5-methyl-6-(2,2,3,3-tetrafluoropropoxy)pyridin-3-yl)methyl)pyrimidine-4-carboxamide]
< 1000 | < 1000 | Cc1cc(C(=O)NCc2cnc(OCC(F)(F)F)c(C)c2)cc(NC(=O)CC2CC2)n1 [Example 954, 2-(2-cyclopropylacetamido)-6-methyl-N-((5-methyl-6-(2,2,2-trifluoroethoxy)pyridin-3-yl)methyl)isonicotinamide]
< 1000 | < 1000 | Cc1cc(C(=O)NCc2cccc(OC(F)(F)F)c2)cc(NC(=O)CC2CC2)n1 [Example 962, 2-(2-cyclopropylacetamido)-6-methyl-N-(3-(trifluoromethoxy)benzyl)isonicotinamide]
< 1000 | < 1000 | Cc1cc(C(=O)NCc2cc(C(F)(F)F)ccc2F)cc(NC(=O)C2CC2)n1 [Example 975, 2-(cyclopropanecarboxamido)-N-(2-fluoro-5-(trifluoromethyl)benzyl)-6-methylisonicotinamide]
